Measured values taken from ChEMBL document CHEMBL3817764, “Pyrimidine-based antimalarials: design strategies and antiplasmodial effects” (Medchemcomm, 2016).

Legend:
Assay type in all cases: functional, organism-based
Plasmodium falciparum [1] = experiment: Antimalarial activity against chloroquine-sensitive Plasmodium falciparum D6 assessed as plasmodial LDH activity
Plasmodium falciparum [2] = experiment: Antimalarial activity against chloroquine-resistant Plasmodium falciparum W2 assessed as plasmodial LDH activity
Plasmodium falciparum [3] = experiment: Antiplasmodial activity against chloroquine-resistant Plasmodium falciparum W2 by NBT assay
Plasmodium falciparum [4] = experiment: Antiplasmodial activity against chloroquine-sensitive Plasmodium falciparum D6 by NBT assay

| Structure (SMILES) | IC50 (Plasmodium falciparum [1]) [µM] | IC50 (Plasmodium falciparum [2]) [µM] | IC50 (Plasmodium falciparum [3]) [µM] | IC50 (Plasmodium falciparum [4]) [µM] |
| --- | --- | --- | --- | --- |
| Cc1cc(NCCCCNc2ccnc3cc(Cl)ccc23)nc(NCCCCCCO)n1 | 0.05 | 0.05 | – | – |
| OCCNc1nccc(NCCNc2ccnc3cc(Cl)ccc23)n1 | 0.05 | 0.05 | – | – |
| Cc1cc(NCCCNc2ccnc3cc(Cl)ccc23)nc(NCCO)n1 | 0.05 | 0.05 | – | – |
| Cc1cc(N2CCN(c3ccnc4cc(Cl)ccc34)CC2)nc(NC2CCCCC2)n1 | 0.13 | 0.13 | – | – |
| OCCCCCNc1nccc(NCCNc2ccnc3cc(Cl)ccc23)n1 | 0.05 | 0.05 | – | – |
| OCCCCCNc1nccc(NCCCCNc2ccnc3cc(Cl)ccc23)n1 | 0.05 | 0.05 | – | – |
| Clc1ccc2c(NCCCNc3cc(Cl)nc(N4CCOCC4)n3)ccnc2c1 | 0.05 | 0.05 | – | – |
| Cc1cc(NCCCNc2ccnc3cc(Cl)ccc23)nc(NCCCCCCO)n1 | 0.05 | 0.05 | – | – |
| Cc1ccc(Nc2nccc(N3CCN(c4ccnc5cc(Cl)ccc45)CC3)n2)cc1 | 0.13 | 0.13 | – | – |
| Cc1cc(NCCCCNc2ccnc3cc(Cl)ccc23)nc(NCCCCO)n1 | 0.05 | 0.05 | – | – |
| CCN1CCN(c2ccnc(NCCCNc3ccnc4cc(Cl)ccc34)n2)CC1 | – | – | 0.016 | 0.006 |
| OCCCCNc1nccc(NCCCCNc2ccnc3cc(Cl)ccc23)n1 | 0.05 | 0.05 | – | – |
| Cc1cc(NCCCCNc2ccnc3cc(Cl)ccc23)nc(NCCO)n1 | 0.05 | 0.05 | – | – |
| Cc1cc(NCCCCNc2ccnc3cc(Cl)ccc23)nc(NCCCO)n1 | 0.05 | 0.05 | – | – |
| Cc1cc(NCCNc2ccnc3cc(Cl)ccc23)nc(NCCCO)n1 | 0.05 | 0.05 | – | – |
| CCN1CCN(c2cc(C)nc(NCCCNc3ccnc4cc(Cl)ccc34)n2)CC1 | – | – | 0.016 | 0.006 |
| Cc1cc(NCCNc2ccnc3cc(Cl)ccc23)nc(NCCCCO)n1 | 0.05 | 0.05 | – | – |
| Clc1ccc2c(N3CCN(c4ccnc(Nc5ccccc5)n4)CC3)ccnc2c1 | 0.13 | 0.13 | – | – |
| OCCCNc1nccc(NCCNc2ccnc3cc(Cl)ccc23)n1 | 0.05 | 0.05 | – | – |
| COc1ccc(Nc2nc(C)cc(N3CCN(c4ccnc5cc(Cl)ccc45)CC3)n2)cc1 | 0.13 | 0.13 | – | – |
| Cc1cc(N2CCOCC2)nc(NCCNc2ccnc3cc(Cl)ccc23)n1 | – | – | 0.016 | 0.006 |
| CN1CCN(c2nc(Cl)cc(NCCNc3ccnc4cc(Cl)ccc34)n2)CC1 | 0.05 | 0.05 | – | – |

| Structure (SMILES) | IC50 (Plasmodium falciparum [1]) [µM] | IC50 (Plasmodium falciparum [2]) [µM] | IC50 (Plasmodium falciparum [3]) [µM] | IC50 (Plasmodium falciparum [4]) [µM] |
| --- | --- | --- | --- | --- |
| Cc1cc(N2CCN(c3ccnc4cc(Cl)ccc34)CC2)nc(N2CCNCC2)n1 | 0.13 | 0.13 | – | – |
| OCCCNc1nccc(NCCCNc2ccnc3cc(Cl)ccc23)n1 | 0.05 | 0.05 | – | – |
| CN1CCN(c2nccc(NCCCNc3ccnc4cc(Cl)ccc34)n2)CC1 | 0.05 | 0.05 | – | – |
| CN1CCN(c2nccc(NCCNc3ccnc4cc(Cl)ccc34)n2)CC1 | 0.05 | 0.05 | – | – |
| Cc1cc(N2CCN(c3ccnc4cc(Cl)ccc34)CC2)nc(NCCCO)n1 | 0.13 | 0.13 | – | – |
| Cc1cc(N2CCN(c3ccnc4cc(Cl)ccc34)CC2)nc(Cl)n1 | 0.13 | 0.13 | – | – |
| Clc1ccc2c(NCCNc3cc(Cl)nc(Cl)n3)ccnc2c1 | 0.05 | 0.05 | – | – |
| Cc1cc(N2CCN(C)CC2)nc(NCCCCCCNc2ccnc3cc(Cl)ccc23)n1 | – | – | 0.016 | 0.006 |
| Clc1ccc2c(NCCNc3nccc(Cl)n3)ccnc2c1 | – | – | 0.016 | 0.006 |
| Cc1cc(N2CCOCC2)nc(NCCCCNc2ccnc3cc(Cl)ccc23)n1 | – | – | 0.016 | 0.006 |
| OCCCNc1nccc(N2CCN(c3ccnc4cc(Cl)ccc34)CC2)n1 | 0.13 | 0.13 | – | – |
| Clc1ccc(Nc2nccc(N3CCN(c4ccnc5cc(Cl)ccc45)CC3)n2)cc1 | 0.13 | 0.13 | – | – |
| Cc1cc(NCCNc2ccnc3cc(Cl)ccc23)nc(NCCO)n1 | 0.05 | 0.05 | – | – |
| OCCCCCCNc1nccc(NCCCCNc2ccnc3cc(Cl)ccc23)n1 | 0.05 | 0.05 | – | – |
| Clc1ccc2c(NCCNc3nccc(N4CCCCC4)n3)ccnc2c1 | – | – | 0.016 | 0.006 |
| OCCCCCCNc1nccc(NCCCNc2ccnc3cc(Cl)ccc23)n1 | 0.05 | 0.05 | – | – |
| Cc1cc(N2CCN(c3ccnc4cc(Cl)ccc34)CC2)nc(Nc2ccc(Br)cc2)n1 | 0.13 | 0.13 | – | – |
| Cc1cc(N2CCN(c3ccnc4cc(Cl)ccc34)CC2)nc(N2CCOCC2)n1 | 0.13 | 0.13 | – | – |
| CCN1CCN(c2nccc(NCCCNc3ccnc4cc(Cl)ccc34)n2)CC1 | 0.05 | 0.05 | – | – |
| Cc1cc(NCCCNc2ccnc3cc(Cl)ccc23)nc(NCCCCO)n1 | 0.05 | 0.05 | – | – |
| Clc1ccc2c(N3CCN(c4ccnc(Nc5ccc(Br)cc5)n4)CC3)ccnc2c1 | 0.13 | 0.13 | – | – |
| Fc1ccc(Nc2nccc(N3CCN(c4ccnc5cc(Cl)ccc45)CC3)n2)cc1 | 0.13 | 0.13 | – | – |

| Structure (SMILES) | IC50 (Plasmodium falciparum [1]) [µM] | IC50 (Plasmodium falciparum [2]) [µM] | IC50 (Plasmodium falciparum [3]) [µM] | IC50 (Plasmodium falciparum [4]) [µM] |
| --- | --- | --- | --- | --- |
| Cc1cc(N2CCN(c3ccnc4cc(Cl)ccc34)CC2)nc(NCCO)n1 | 0.13 | 0.13 | – | – |
| CCN1CCN(c2nc(Cl)cc(NCCNc3ccnc4cc(Cl)ccc34)n2)CC1 | 0.05 | 0.05 | – | – |
| CN1CCN(c2nc(Cl)cc(NCCCNc3ccnc4cc(Cl)ccc34)n2)CC1 | 0.05 | 0.05 | – | – |
| Clc1ccc2c(NCCNc3cc(Cl)nc(N4CCCCC4)n3)ccnc2c1 | 0.05 | 0.05 | – | – |
| CN1CCN(c2ccnc(NCCCNc3ccnc4cc(Cl)ccc34)n2)CC1 | – | – | 0.016 | 0.006 |
| OCCCCCCNc1nccc(NCCNc2ccnc3cc(Cl)ccc23)n1 | 0.05 | 0.05 | – | – |
| CCN1CCN(c2nccc(NCCNc3ccnc4cc(Cl)ccc34)n2)CC1 | 0.05 | 0.05 | – | – |
| CCN1CCN(c2cc(C)nc(NCCCCNc3ccnc4cc(Cl)ccc34)n2)CC1 | – | – | 0.016 | 0.006 |
| Clc1ccc2c(NCCCNc3ccnc(N4CCOCC4)n3)ccnc2c1 | 0.05 | 0.05 | – | – |
| Clc1ccc2c(NCCNc3cc(Cl)nc(N4CCOCC4)n3)ccnc2c1 | 0.05 | 0.05 | – | – |
| Clc1ccc2c(NCCCNc3ccnc(Cl)n3)ccnc2c1 | 0.05 | 0.05 | – | – |
| Cc1cc(N2CCN(c3ccnc4cc(Cl)ccc34)CC2)nc(N2CCCC2)n1 | 0.13 | 0.13 | – | – |
| Clc1ccc2c(NCCNc3nc(Cl)cc(Cl)n3)ccnc2c1 | – | – | 0.016 | 0.006 |
| Cc1cc(N2CCN(C)CC2)nc(NCCCCNc2ccnc3cc(Cl)ccc23)n1 | – | – | 0.016 | 0.006 |
| CCN1CCN(c2nc(Cl)cc(NCCCNc3ccnc4cc(Cl)ccc34)n2)CC1 | 0.05 | 0.05 | – | – |
| Clc1ccc2c(NCCCNc3nc(Cl)cc(Cl)n3)ccnc2c1 | – | – | 0.016 | 0.006 |
| Cc1cc(NCCCCNc2ccnc3cc(Cl)ccc23)nc(NCCCCCO)n1 | 0.05 | 0.05 | – | – |
| Clc1ccc2c(NCCNc3nccc(N4CCOCC4)n3)ccnc2c1 | – | – | 0.016 | 0.006 |
| Cc1ccc(Nc2nc(C)cc(N3CCN(c4ccnc5cc(Cl)ccc45)CC3)n2)cc1 | 0.13 | 0.13 | – | – |
| COc1cc(Nc2nccc(N3CCN(c4ccnc5cc(Cl)ccc45)CC3)n2)cc(OC)c1 | 0.13 | 0.13 | – | – |
| OCCNc1nccc(NCCCNc2ccnc3cc(Cl)ccc23)n1 | 0.05 | 0.05 | – | – |
| Cc1cc(N2CCCCC2)nc(NCCCCNc2ccnc3cc(Cl)ccc23)n1 | – | – | 0.016 | 0.006 |

| Structure (SMILES) | IC50 (Plasmodium falciparum [1]) [µM] | IC50 (Plasmodium falciparum [2]) [µM] | IC50 (Plasmodium falciparum [3]) [µM] | IC50 (Plasmodium falciparum [4]) [µM] |
| --- | --- | --- | --- | --- |
| Cc1cc(N2CCN(c3ccnc4cc(Cl)ccc34)CC2)nc(Nc2ccc(F)cc2)n1 | 0.13 | 0.13 | – | – |
| OCCCCNc1nccc(NCCNc2ccnc3cc(Cl)ccc23)n1 | 0.05 | 0.05 | – | – |
| Cc1cc(N2CCN(C)CC2)nc(NCCCNc2ccnc3cc(Cl)ccc23)n1 | – | – | 0.016 | 0.006 |
| Cc1cc(N2CCN(c3ccnc4cc(Cl)ccc34)CC2)nc(Nc2ccc(Cl)cc2)n1 | 0.13 | 0.13 | – | – |
| OCCCNc1nccc(NCCCCNc2ccnc3cc(Cl)ccc23)n1 | 0.05 | 0.05 | – | – |
| Cc1cc(N2CCOCC2)nc(NCCCCCCNc2ccnc3cc(Cl)ccc23)n1 | – | – | 0.016 | 0.006 |
| OCCNc1nccc(N2CCN(c3ccnc4cc(Cl)ccc34)CC2)n1 | 0.13 | 0.13 | – | – |
| Clc1ccc2c(NCCCNc3cc(Cl)nc(Cl)n3)ccnc2c1 | 0.05 | 0.05 | – | – |
| Cc1cc(NCCCNc2ccnc3cc(Cl)ccc23)nc(NCCCCCO)n1 | 0.05 | 0.05 | – | – |
| OCCCCNc1nccc(NCCCNc2ccnc3cc(Cl)ccc23)n1 | 0.05 | 0.05 | – | – |
| Cc1cc(NCCCNc2ccnc3cc(Cl)ccc23)nc(NCCCO)n1 | 0.05 | 0.05 | – | – |
| OCCCCCNc1nccc(NCCCNc2ccnc3cc(Cl)ccc23)n1 | 0.05 | 0.05 | – | – |
| COc1cc(Nc2nc(C)cc(N3CCN(c4ccnc5cc(Cl)ccc45)CC3)n2)cc(OC)c1 | 0.13 | 0.13 | – | – |
| COc1ccc(Nc2nccc(N3CCN(c4ccnc5cc(Cl)ccc45)CC3)n2)cc1 | 0.13 | 0.13 | – | – |
| Cc1cc(NCCNc2ccnc3cc(Cl)ccc23)nc(NCCCCCCO)n1 | 0.05 | 0.05 | – | – |
| Clc1ccc2c(NCCCNc3ccnc(N4CCCCC4)n3)ccnc2c1 | 0.05 | 0.05 | – | – |
| Cc1cc(NCCNc2ccnc3cc(Cl)ccc23)nc(NCCCCCO)n1 | 0.05 | 0.05 | – | – |
| Clc1ccc2c(NCCNc3ccnc(N4CCCCC4)n3)ccnc2c1 | 0.05 | 0.05 | – | – |
| Cc1cc(N2CCN(c3ccnc4cc(Cl)ccc34)CC2)nc(Nc2ccccc2)n1 | 0.13 | 0.13 | – | – |
| Clc1ccc2c(NCCCNc3cc(Cl)nc(N4CCCCC4)n3)ccnc2c1 | 0.05 | 0.05 | – | – |
| OCCNc1nccc(NCCCCNc2ccnc3cc(Cl)ccc23)n1 | 0.05 | 0.05 | – | – |
| Clc1ccc2c(NCCNc3ccnc(Cl)n3)ccnc2c1 | 0.05 | 0.05 | – | – |
